Source: patent publication US20220089636A1, “TETRAZOLONE SUBSTITUTED STEROIDS AND USE THEREOF” (Beijing Xuanyi PharmaSciences Co., Ltd., priority 2019, published 2022)
Read-outs that look alike come from different tables or passages of the source.

Tests used:
[1] = Mouse PK study (i.v. and p.o.); format: in vivo; settings: plasma, male CD1 mice; for half-life: read-out: T1/2 (hr) i.v. (converted); for Vd: read-out: Vss; for bioavailability: 5 mg/kg p.o. vs 1 mg/kg i.v.
Method: Test compounds were dosed to male CD1 mice at 5 mg/kg by oral gavage (p.o.) or 1 mg/kg by intravenous injection (i.v.). Blood samples were taken at 0.083, 0.25, 0.5, 1.0, 3.0, 6.0 and 24 hours post i.v. dosing and at 0.25, 0.5, 1.0, 3.0, 6.0 and 24 hours post p.o. dosing. The plasma concentration of compounds were determined by HPLC.

α1β2γ2 GABAA receptor = biological target: T1, α1β2γ2 GABAA receptor (Homo sapiens, UniProt P14867+P47870); assay: Patch clamp electrophysiology assay of recombinant α1β2γ2 GABAA receptors (potentiation of 2 μM GABA-evoked Cl- current); format: cell-based; settings: HEK293T cells stably transfected with α1β2γ2 GABAA; for EC50: whole cell, 2 μM GABA, -80 mV; for Emax: HEK-293T, potentiation of 2 μM GABA current
T1 construct: expressed in transfected cells
Method: Cellular electrophysiology is used to measure the pharmacological properties of GABAA receptor modulators in heterologous cell systems. Each compound is tested for its ability to affect GABA mediated currents at a submaximal agonist dose (GABA EC20=2 μM). HEK293T cells are stably transfected with the α1β2γ2 subunits of the GABAA receptor. Flasks or dishes of HEK293 GABAA cells were maintained in the medium (DMEM, 11% (v/v) heat inactivated FBS, 100 or 200 μg/ml G418, 40 μg/ml Hygromycin B, 80 μg/ml Zeocin) and incubated at 37° C. in a humidified incubator with 5% CO2. 12 to 24 hours prior to electrophysiological recordings, the cells were plated on glass cover slips placed in culture dishes and maintained under the same incubation and media conditions. The number of cells being plated on the cover slip should reach a confluence rate at which majority of the cells are single.
For the electrophysiological recordings in the study the following external and internal solutions were used (Table 1):
HEKA EPC 10 USB patch clamp amplifier (from HEKA Elektronik, Germany) was used in the whole cell recording. A cover slip with plenty of single HEK293T-GABAA cells on the surface was removed and placed into a continuously perfused (approximately 1-2 ml/minute) recording chamber mounted on an inverted microscope. GABAA Cl^− current was recorded from single cell using standard whole cell recording techniques. 2 μM GABA was used to evoke GABAA Cl^− current (2 μM of GABA was the EC10-EC20 value of agonist GABA obtained internally on the stable GABAA cells used in this study). After achieving break-in (whole-cell) configuration, the cell was voltage clamped at a holding potential of −80 mV. Only stable cells meeting the recording parameters (membrane resistance Rm>500 MΩ, access resistance (Ra)<15 MΩ, leak current<100 pA in 90% of the recording time) were used. 2 μM GABA was applied to the cell to induce stable Cl^− current first as control for about 2 seconds, test compounds (i.e., compounds of formula (AI), (I), (AII), and (II), or any subgenera thereof) were followed to be applied to the cells for 3 min, then 2 μM GABA was applied to observe the potentiation effect on the GABAA Cl^− current. Different doses of test compound from low to high were applied to the same cell when the cell was stable. A cell was considered stable when current size evoked by 2 μM GABA applied to the cell from time to time was similar. To minimize the possible desensitation of GABAA Cl^− current, duration between applications of test articles was set to 180 seconds.
Test compounds were dissolved in DMSO to form stock solutions (10 mM). Test compounds were diluted to 0.003, 0.01, 0.03, 0.1, 0.3, 1, 3 and 10 μM in bath solution. AU concentrations of test articles were tested on each cell. Data were analyzed using software provided by HEKA, Microsoft Excel and Graphpad Prism (Table 2).

[2] = iv, 1 mg/kg i.v., read-out: AUClast (hr*ng/mL) i.v.
[3] = po, 5 mg/kg p.o., read-out: AUClast (hr*ng/mL) p.o.

T1 sequence (P14867 28-456): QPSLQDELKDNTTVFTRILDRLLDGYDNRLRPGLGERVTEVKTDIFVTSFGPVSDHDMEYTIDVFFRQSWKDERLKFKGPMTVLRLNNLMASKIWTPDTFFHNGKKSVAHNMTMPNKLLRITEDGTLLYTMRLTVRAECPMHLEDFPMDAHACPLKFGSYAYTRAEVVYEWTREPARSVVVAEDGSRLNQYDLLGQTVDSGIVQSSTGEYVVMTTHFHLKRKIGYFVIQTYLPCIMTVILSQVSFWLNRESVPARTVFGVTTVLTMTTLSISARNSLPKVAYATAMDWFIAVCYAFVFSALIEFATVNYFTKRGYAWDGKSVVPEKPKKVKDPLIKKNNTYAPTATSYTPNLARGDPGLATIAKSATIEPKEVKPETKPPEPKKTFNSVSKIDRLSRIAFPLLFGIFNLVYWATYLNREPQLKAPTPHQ
T1 sequence (P47870 25-512 limits assumed): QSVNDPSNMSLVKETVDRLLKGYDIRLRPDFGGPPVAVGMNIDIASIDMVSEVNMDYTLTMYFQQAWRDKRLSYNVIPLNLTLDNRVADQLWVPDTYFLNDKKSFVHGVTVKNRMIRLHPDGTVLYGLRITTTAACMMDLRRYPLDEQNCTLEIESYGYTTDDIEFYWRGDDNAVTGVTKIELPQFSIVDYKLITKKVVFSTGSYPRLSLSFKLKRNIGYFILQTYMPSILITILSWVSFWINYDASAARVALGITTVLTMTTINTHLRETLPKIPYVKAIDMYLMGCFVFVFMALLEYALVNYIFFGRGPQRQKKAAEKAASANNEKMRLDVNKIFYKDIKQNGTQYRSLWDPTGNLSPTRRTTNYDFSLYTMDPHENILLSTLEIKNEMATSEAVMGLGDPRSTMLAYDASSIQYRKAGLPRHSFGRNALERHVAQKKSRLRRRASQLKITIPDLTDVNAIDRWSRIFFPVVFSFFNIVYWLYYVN
T1 sequence (P18507 40-475 partner): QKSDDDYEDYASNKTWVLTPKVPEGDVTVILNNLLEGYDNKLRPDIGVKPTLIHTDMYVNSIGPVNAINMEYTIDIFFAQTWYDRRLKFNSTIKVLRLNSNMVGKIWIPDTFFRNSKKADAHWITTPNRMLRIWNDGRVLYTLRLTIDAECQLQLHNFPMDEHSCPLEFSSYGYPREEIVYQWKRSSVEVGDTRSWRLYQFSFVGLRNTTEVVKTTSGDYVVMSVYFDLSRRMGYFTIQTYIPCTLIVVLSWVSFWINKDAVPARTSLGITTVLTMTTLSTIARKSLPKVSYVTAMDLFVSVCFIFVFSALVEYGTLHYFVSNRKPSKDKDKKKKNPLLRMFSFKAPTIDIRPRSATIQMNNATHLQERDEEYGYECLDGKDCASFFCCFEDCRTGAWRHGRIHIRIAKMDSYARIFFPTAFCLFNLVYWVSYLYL

C[C@@]1(O)CC[C@H]2[C@H](CC[C@@H]3[C@@H]2CC[C@]2(C)[C@@H](C(=O)Cn4nnn(C(F)(F)F)c4=O)CC[C@@H]32)C1 [Example 22, 1-(2-((3R,5R,8R,9R,10S,13S,14S,17S)-3-hydroxy-3,13-dimethylhexadecahydro-1H-cyclopenta[a]phenanthren-17-yl)-2-oxoethyl)-4-(trifluoromethyl)-1,4-dihydro-5H-tetrazol-5-one]
clearance ([1]; iv, 1 mg/kg i.v.): 130 mL/min/kg
AUC(0-t) [1, 2]: 118 ng·h/mL
half-life ([1]; iv, 1 mg/kg i.v.): 0.3 h
Vd ([1]; iv, 1 mg/kg i.v.): 2.59 L/kg
Cmax ([1]; po, 5 mg/kg p.o.): 213 ng/mL
Tmax ([1]; po, 5 mg/kg p.o.): 0.5 h
bioavailability ([1]; po): 34.2%
AUC(0-t) [1, 3]: 203 ng·h/mL
EC50 (α1β2γ2 GABAA receptor): 14 nM

C[C@@]1(O)CC[C@H]2[C@H](CC[C@@H]3[C@@H]2CC[C@]2(C)[C@@H](C(=O)Cn4nnn(-c5cccc(C#N)c5)c4=O)CC[C@@H]32)C1 [Example 14, 3-(4-(2-((3R,5R,8R,9R,10S,13S,14S,17S)-3-hydroxy-3,13-dimethylhexadecahydro-1H-cyclopenta[a]phenanthren-17-yl)-2-oxoethyl)-5-oxo-4,5-dihydro-1H-tetrazol-1-yl)benzonitrile]
clearance ([1]; iv, 1 mg/kg i.v.): 20.5 mL/min/kg
AUC(0-t) [1, 2]: 771 ng·h/mL
half-life ([1]; iv, 1 mg/kg i.v.): 1.44 h
Vd ([1]; iv, 1 mg/kg i.v.): 1.92 L/kg
Cmax ([1]; po, 5 mg/kg p.o.): 250 ng/mL
Tmax ([1]; po, 5 mg/kg p.o.): 1 h
bioavailability ([1]; po): 28.9%
AUC(0-t) [1, 3]: 1120 ng·h/mL
EC50 (α1β2γ2 GABAA receptor): 7 nM
Emax (α1β2γ2 GABAA receptor): 974%

CC(C)(C)n1nnn(CC(=O)[C@H]2CC[C@H]3[C@@H]4CC[C@@H]5C[C@](C)(O)CC[C@@H]5[C@H]4CC[C@]23C)c1=O [Example 5, 1-(tert-butyl)-4-(2-((3R,5R,8R,9R,10S,13S,14S,17S)-3-hydroxy-3,13-dimethylhexadecahydro-1H-cyclopenta[a]phenanthren-17-yl)-2-oxoethyl)-1,4-dihydro-5H-tetrazol-5-one]
clearance ([1]; iv, 1 mg/kg i.v.): 24.5 mL/min/kg
AUC(0-t) [1, 2]: 634 ng·h/mL
half-life ([1]; iv, 1 mg/kg i.v.): 7.83 h
Vd ([1]; iv, 1 mg/kg i.v.): 8.3 L/kg
Cmax ([1]; po, 5 mg/kg p.o.): 276 ng/mL
Tmax ([1]; po, 5 mg/kg p.o.): 0.5 h
bioavailability ([1]; po): 20.5%
AUC(0-t) [1, 3]: 633 ng·h/mL
EC50 (α1β2γ2 GABAA receptor): 150 nM

C[C@@]1(O)CC[C@H]2[C@H](CC[C@@H]3[C@@H]2CC[C@]2(C)[C@@H](C(=O)Cn4nnn(-c5cccc(F)c5)c4=O)CC[C@@H]32)C1 [Example 12, 1-(3-fluorophenyl)-4-(2-((3R,5R,8R,9R,10S,13S,14S,17S)-3-hydroxy-3,13-dimethylhexadecahydro-1H-cyclopenta[a]phenanthren-17-yl)-2-oxoethyl)-1,4-dihydro-5H-tetrazol-5-one]
clearance ([1]; iv, 1 mg/kg i.v.): 8.33 mL/min/kg
AUC(0-t) [1, 2]: 1880 ng·h/mL
half-life ([1]; iv, 1 mg/kg i.v.): 6.22 h
Vd ([1]; iv, 1 mg/kg i.v.): 2.86 L/kg
Cmax ([1]; po, 5 mg/kg p.o.): 388 ng/mL
Tmax ([1]; po, 5 mg/kg p.o.): 1 h
bioavailability ([1]; po): 42.4%
AUC(0-t) [1, 3]: 4140 ng·h/mL
EC50 (α1β2γ2 GABAA receptor): 9.3 nM

C[C@@]1(O)CC[C@H]2[C@H](CC[C@@H]3[C@@H]2CC[C@]2(C)[C@@H](C(=O)Cn4nnn(C5CCCC5)c4=O)CC[C@@H]32)C1 [Example 8, 1-cyclopentyl-4-(2-((3R,5R,8R,9R,10S,13S,14S,17S)-3-hydroxy-3,13-dimethylhexadecahydro-1H-cyclopenta[a]phenanthren-17-yl)-2-oxoethyl)-1,4-dihydro-5H-tetrazol-5-one]
clearance ([1]; iv, 1 mg/kg i.v.): 140 mL/min/kg
AUC(0-t) [1, 2]: 117 ng·h/mL
half-life ([1]; iv, 1 mg/kg i.v.): 0.73 h
Vd ([1]; iv, 1 mg/kg i.v.): 2.38 L/kg
Cmax ([1]; po, 5 mg/kg p.o.): 22 ng/mL
Tmax ([1]; po, 5 mg/kg p.o.): 0.66 h
bioavailability ([1]; po): 4.48%
AUC(0-t) [1, 3]: 26 ng·h/mL
EC50 (α1β2γ2 GABAA receptor): 95 nM

COc1cccc(-n2nnn(CC(=O)[C@H]3CC[C@H]4[C@@H]5CC[C@@H]6C[C@](C)(O)CC[C@@H]6[C@H]5CC[C@]34C)c2=O)c1 [Example 16, 1-(2-((3R,5R,8R,9R,10S,13S,14S,17S)-3-hydroxy-3,13-dimethylhexadecahydro-1H-cyclopenta[a]phenanthren-17-yl)-2-oxoethyl)-4-(3-methoxyphenyl)-1,4-dihydro-5H-tetrazol-5-one]
clearance ([1]; iv, 1 mg/kg i.v.): 33 mL/min/kg
AUC(0-t) [1, 2]: 500 ng·h/mL
half-life ([1]; iv, 1 mg/kg i.v.): 0.9 h
Vd ([1]; iv, 1 mg/kg i.v.): 1.54 L/kg
Cmax ([1]; po, 5 mg/kg p.o.): 109 ng/mL
Tmax ([1]; po, 5 mg/kg p.o.): 0.5 h
bioavailability ([1]; po): 15.1%
AUC(0-t) [1, 3]: 330 ng·h/mL
EC50 (α1β2γ2 GABAA receptor): 5.4 nM
Emax (α1β2γ2 GABAA receptor): 578%

COc1ccc(-n2nnn(CC(=O)[C@H]3CC[C@H]4[C@@H]5CC[C@@H]6C[C@](C)(O)CC[C@@H]6[C@H]5CC[C@]34C)c2=O)cc1 [Example 15, 1-(2-((3R,5R,8R,9R,10S,13S,14S,17S)-3-hydroxy-3,13-dimethylhexadecahydro-1H-cyclopenta[a]phenanthren-17-yl)-2-oxoethyl)-4-(4-methoxyphenyl)-1,4-dihydro-5H-tetrazol-5-one]
clearance ([1]; iv, 1 mg/kg i.v.): 30 mL/min/kg
AUC(0-t) [1, 2]: 542 ng·h/mL
half-life ([1]; iv, 1 mg/kg i.v.): 1.05 h
Vd ([1]; iv, 1 mg/kg i.v.): 1.76 L/kg
Cmax ([1]; po, 5 mg/kg p.o.): 106 ng/mL
Tmax ([1]; po, 5 mg/kg p.o.): 1 h
bioavailability ([1]; po): 10.8%
AUC(0-t) [1, 3]: 292 ng·h/mL
EC50 (α1β2γ2 GABAA receptor): 5 nM

C[C@@]1(O)CC[C@H]2[C@H](CC[C@@H]3[C@@H]2CC[C@]2(C)[C@@H](C(=O)Cn4nnn(-c5cocn5)c4=O)CC[C@@H]32)C1 [Example 24, 1-(2-((3R,5R,8R,9R,10S,13S,14S,17S)-3-hydroxy-3,13-dimethylhexadecahydro-1H-cyclopenta[a]phenanthren-17-yl)-2-oxoethyl)-4-(oxazol-4-yl)-1,4-dihydro-5H-tetrazol-5-one]
clearance ([1]; iv, 1 mg/kg i.v.): 15.5 mL/min/kg
AUC(0-t) [1, 2]: 998 ng·h/mL
half-life ([1]; iv, 1 mg/kg i.v.): 1.57 h
Vd ([1]; iv, 1 mg/kg i.v.): 1.87 L/kg
Cmax ([1]; po, 5 mg/kg p.o.): 775 ng/mL
Tmax ([1]; po, 5 mg/kg p.o.): 3 h
bioavailability ([1]; po): 172%
AUC(0-t) [1, 3]: 9180 ng·h/mL
EC50 (α1β2γ2 GABAA receptor): 64 nM
Emax (α1β2γ2 GABAA receptor): 698%
